Measured values taken from ChEMBL document CHEMBL4177632 (Bioorg Med Chem, 2017).

Key:
[1] = molecular target: T1, Aldo-keto reductase family 1 member B1 (Rattus norvegicus, UniProt P07943); test: Inhibition of ALR2 in Wistar rat eye lens assessed as reduction in NADPH consumption preincubated for 1 min followed by D,L-glyceraldehyde addition measured after 4 mins by spectrophotometric analysis
[2] = molecular target: Aldo-keto reductase family 1 member A1 (Rattus norvegicus, UniProt P51635); test: Inhibition of ALR1 in Wistar rat kidney assessed as reduction in NADPH consumption preincubated for 1 min followed by substrate addition measured after 4 mins by spectrophotometric analysis
Chain of Aldo-keto reductase family 1 member A1 (P51635 whole entry, looked up): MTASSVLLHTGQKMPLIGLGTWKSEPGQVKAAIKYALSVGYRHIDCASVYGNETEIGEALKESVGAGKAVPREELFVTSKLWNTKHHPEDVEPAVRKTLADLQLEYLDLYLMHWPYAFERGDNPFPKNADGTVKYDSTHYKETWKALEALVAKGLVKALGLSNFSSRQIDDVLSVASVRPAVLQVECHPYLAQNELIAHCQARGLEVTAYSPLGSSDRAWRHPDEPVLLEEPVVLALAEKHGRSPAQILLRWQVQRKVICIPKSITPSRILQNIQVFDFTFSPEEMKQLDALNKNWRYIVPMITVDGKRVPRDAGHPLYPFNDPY

[3] = molecular target: Aldo-keto reductase family 1 member B10 (Homo sapiens, UniProt O60218); test: Inhibition of recombinant human AKR1B10
Chain of Aldo-keto reductase family 1 member B10 (O60218 whole entry): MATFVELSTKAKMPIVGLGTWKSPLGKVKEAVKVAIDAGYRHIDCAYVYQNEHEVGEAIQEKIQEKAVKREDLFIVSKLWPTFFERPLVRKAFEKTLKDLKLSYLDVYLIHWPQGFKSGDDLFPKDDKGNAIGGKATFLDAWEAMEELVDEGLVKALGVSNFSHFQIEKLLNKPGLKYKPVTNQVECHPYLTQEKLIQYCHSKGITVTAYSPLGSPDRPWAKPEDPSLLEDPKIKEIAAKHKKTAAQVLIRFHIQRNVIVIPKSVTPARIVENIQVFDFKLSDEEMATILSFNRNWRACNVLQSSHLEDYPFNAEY

[4] = molecular target: T2, Aldo-keto reductase family 1 member B1 (Homo sapiens, UniProt P15121); test: Inhibition of recombinant human AKR1B1 using D,L-glyceraldehyde as substrate
[5] = molecular target: T1, Aldo-keto reductase family 1 member B1; test: Uncompetitive inhibition of ALR2 in Wistar rat eye lens assessed as reduction in NADPH consumption preincubated for 1 min followed by D,L-glyceraldehyde addition measured after 4 mins by spectrophotometric analysis
[6] = molecular target: T2, Aldo-keto reductase family 1 member B1; test: Uncompetitive inhibition of recombinant human AKR1B1 using D,L-glyceraldehyde as substrate

IC50 [1] [nM] | IC50 [2] [nM] | IC50 [3] [nM] | IC50 [4] [nM] | Ki [5] [nM] | Ki [6] [nM] | Structure (SMILES)
34200 | > 100000 | – | – | – | – | CC(C)N1CCc2c(c3ccccc3n2CC(=O)O)C1
20.5 | 21900 | – | – | – | – | CC(=O)N1CCc2c(c3ccccc3n2CC(=O)O)C1
12.7 | 4840 | – | – | – | – | CCOC(=O)N1CCc2c(c3cc(C(=O)O)ccc3n2CC(=O)O)C1
12.6 | 9980 | 9430 | 83.5 | 16.9 | 66.1 | CCOC(=O)N1CCc2c(c3cc(OC)ccc3n2CC(=O)O)C1

The next lines start with the molecule.

Structure (SMILES) | IC50 [1] [nM] | IC50 [2] [nM] | IC50 [3] [nM] | IC50 [4] [nM] | Ki [5] [nM] | Ki [6] [nM]
CC(=O)c1c(C)n(CC(=O)O)c2ccccc12 | 169 | 11200 | – | – | – | –
O=C(O)Cn1c2c(c3ccccc31)CN(C(=O)C1CC1)CC2 | 57.5 | 7540 | – | – | – | –
Cc1c(C=O)c2ccccc2n1CC(=O)O | 340 | 11800 | – | – | – | –
